Our source for the mass density, surface tension liquid-gas and interfacial tension values is the NIST ThermoML archive (doi:10.1016/j.fluid.2014.07.039).

Numbers after ± are expanded uncertainties.

The conditions of data set [1]: 344.15 K; for mass density: Vibrating tube method; for surface tension liquid-gas: Pendant drop shape.
For data set [2] the following is noted: 344.15 K, Liquid, pendant drop shape.

In the case of `O=C=O` [carbon dioxide], the mass density in data set [1] (101.33 kPa, Gas) is recorded as 1.563 ± 0.032 kg/m3.

Regarding `CCCCCCCCCCCC` [dodecane], the mass density in data set [1] (101.3 kPa, Liquid) stood at 712.1 ± 0.22 kg/m3. In data set [1] (Liquid), the surface tension liquid-gas was found to be 20.72 ± 0.24 mN/m.

For `CCCCCCCCCCCC` [dodecane] + O=C=O, the interfacial tension worked out at 20.72 ± 0.02 mN/m in data set [2] (100 kPa); 18.54 ± 0.02 mN/m in data set [2] (1000 kPa); 16.53 ± 0.02 mN/m in data set [2] (2000 kPa); 14.74 ± 0.02 mN/m in data set [2] (3000 kPa); 13.03 ± 0.02 mN/m in data set [2] (4000 kPa); 11.31 ± 0.02 mN/m in data set [2] (5000 kPa). For the same molecule, the interfacial tension turned out to be 9.57 ± 0.02 mN/m in data set [2] (6000 kPa); 7.82 ± 0.02 mN/m in data set [2] (7000 kPa); 6.12 ± 0.02 mN/m in data set [2] (8000 kPa); 4.57 ± 0.02 mN/m in data set [2] (9000 kPa); 3.24 ± 0.02 mN/m in data set [2] (10000 kPa); 2.26 ± 0.02 mN/m in data set [2] (11000 kPa).

As to `CCCCCCCCCCCCCC` [tetradecane], in data set [1] (101.3 kPa, Liquid), the mass density was 727.1 ± 0.22 kg/m3. Moreover, the surface tension liquid-gas in data set [1] (Liquid) was found to be 22.07 ± 0.25 mN/m.

For `CCCCCCCCCCCCCC` [tetradecane] + O=C=O, the interfacial tension in data set [2] (100 kPa) amounted to 22.07 ± 0.02 mN/m; in data set [2] (1000 kPa), 20.41 ± 0.02 mN/m; in data set [2] (2000 kPa), 18.55 ± 0.02 mN/m; in data set [2] (3000 kPa), 16.7 ± 0.02 mN/m; in data set [2] (4000 kPa) it was 14.87 ± 0.02 mN/m; in data set [2] (5000 kPa) it was 13.06 ± 0.02 mN/m. The interfacial tension amounted to 11.31 ± 0.02 mN/m in data set [2] (6000 kPa); 9.61 ± 0.02 mN/m in data set [2] (7000 kPa); 8 ± 0.02 mN/m in data set [2] (8000 kPa); 6.48 ± 0.02 mN/m in data set [2] (9000 kPa); 5.07 ± 0.02 mN/m in data set [2] (10000 kPa); 3.78 ± 0.02 mN/m in data set [2] (11000 kPa). For the same molecule, the interfacial tension worked out at 2.63 ± 0.02 mN/m in data set [2] (12000 kPa), 1.64 ± 0.02 mN/m in data set [2] (13000 kPa) and 0.82 ± 0.02 mN/m in data set [2] (14000 kPa).

Turning to `CCCCCCCCCCCCC` [tridecane], the mass density in data set [1] (101.3 kPa, Liquid) is 720.2 ± 0.22 kg/m3. For the same molecule, the surface tension liquid-gas in data set [1] (Liquid) turned out to be 21.56 ± 0.24 mN/m.

Consider `CCCCCCCCCCCCC` [tridecane] + O=C=O, for which the interfacial tension is given as 21.56 ± 0.02 mN/m in data set [2] (100 kPa); 19.68 ± 0.02 mN/m in data set [2] (1000 kPa); 17.65 ± 0.02 mN/m in data set [2] (2000 kPa); 15.67 ± 0.02 mN/m in data set [2] (3000 kPa); 13.77 ± 0.02 mN/m in data set [2] (4000 kPa); 11.94 ± 0.02 mN/m in data set [2] (5000 kPa). Besides, the interfacial tension was 10.18 ± 0.02 mN/m in data set [2] (6000 kPa); 8.52 ± 0.02 mN/m in data set [2] (7000 kPa); 6.95 ± 0.02 mN/m in data set [2] (8000 kPa); 5.49 ± 0.02 mN/m in data set [2] (9000 kPa); 4.13 ± 0.02 mN/m in data set [2] (10000 kPa); 2.89 ± 0.02 mN/m in data set [2] (11000 kPa). Further, the interfacial tension in data set [2] (12000 kPa) amounted to 1.77 ± 0.02 mN/m; in data set [2] (13000 kPa), 0.78 ± 0.02 mN/m.

For orientation: mass density means mass per unit of volume. What is called surface tension liquid-gas is the force per length acting along the surface.
